According to patent US20090025713A1, “Nebulised Antibiotics for Inhalation Therapy” (priority 2006, published 2009):
Where “and” joins values, the source holds several entries; their conditions need not be identical. Equal values may be shown once.

Test system: Calu-3 cells
Assay: Cellular tolerability test: TEER of Calu-3 monolayers
Assay type: cell-based, human
Settings: for TEER after 2 hours Mean [%]: in KRB; for effect on vitality of Calu-3 cells (in words): summary of Table 1
From the text: In addition to the physicochemical properties of drug formulations and their stability, either as solution or dispersed systems, it is helpful to investigate the cellular tolerability of such drug formulations in a cell culture test system. For this purpose the bronchial cell line Calu-3 was used as an in vitro model for toxicity assessment. Calu-3 represents a human submucosal adenocarcinoma cell line that forms tight, polarized and well differentiated monolayers with apical microvilli and tight junctional complexes. In contrast to other cell lines, Calu-3 cells generate extracellular mucus. […] In addition, it has been shown that loss of monolayer integrity is paralleled by a decrease in TEER to values below 600Ω·cm^2 and an increase in permeability. […] Since toxicity is paralleled by a loss of the monolayer integrity, a decrease in TEER of more than 50% is indicative for the toxicity of a test compound. […] The Calu-3 cell tests offer the possibility to investigate potential effects of the drug substance as well as the influence of excipients or formulation constituents.
TEER was determined in physiological Krebs Ringer buffer (KRB) for two hours after the application of the different formulations or excipients. A decrease of the measured resistance indicated an affection of intact epithelial cell-cell contacts (tight junctions), which is an extremely sensitive parameter to determine toxic effects. To assess whether such cell damage was reversible, the cells were incubated for 24 h in cell culture subsequently to the incubation with the test formulations.

[1] = conc. (undiluted), after 24 h in cell culture following incubation
[2] = conc. (undiluted; stock concentration given with each formulation name)
[3] = dilution 1:5, after 24 h in cell culture following incubation
[4] = dilution 1:10, after 24 h in cell culture following incubation

| Compound | TEER after 24 hours Mean [%] [1] | TEER after 2 hours Mean [%] [2] | TEER after 24 hours Mean [%] [3] | TEER after 2 hours Mean [%] (dilution 1:5) | TEER after 24 hours Mean [%] [4] | TEER after 2 hours Mean [%] (dilution 1:10) | effect on vitality of Calu-3 cells (in words) | TEER after 24 hours Mean [%] (positive control, 0.1% w/v in KRB, passages p44U, p45U, p46U, p47U) |
| --- | --- | --- | --- | --- | --- | --- | --- | --- |
| 2-hydroxypropyl-β-cyclodextrin [Example 2-HP-β-CD] | 45% | 59% | 77% | 86% | 73% | 90% | – | – |
| C[C@@H]1[C@H](O)[C@@H](C)/C=C/C=C/C=C/C=C/C=C/C=C/C=C/[C@H](O[C@@H]2O[C@H](C)[C@@H](O)[C@H](N)[C@@H]2O)C[C@@H]2O[C@](O)(C[C@@H](O)C[C@@H](O)[C@H](O)CC[C@@H](O)C[C@@H](O)CC(=O)O[C@H]1C)C[C@H](O)[C@H]2C(=O)O [Amphotericin B, reference compound] | 67% | 108% | 64% | 80% | – | – | No damaging effect | – |
| O=C(O)CC(O)(CC(=O)O)C(=O)O [Citric acid] | 53% | 105% | 44% | 40% | – | – | – | – |
| OC[C@H]1O[C@@H]2O[C@H]3[C@H](O)[C@@H](O)[C@@H](O[C@H]4[C@H](O)[C@@H](O)[C@@H](O[C@H]5[C@H](O)[C@@H](O)[C@@H](O[C@H]6[C@H](O)[C@@H](O)[C@@H](O[C@H]7[C@H](O)[C@@H](O)[C@@H](O[C@H]8[C@H](O)[C@@H](O)[C@@H](O[C@H]9[C@H](O)[C@@H](O)[C@@H](O[C@H]1[C@H](O)[C@H]2O)O[C@@H]9CO)O[C@@H]8CO)O[C@@H]7CO)O[C@@H]6CO)O[C@@H]5CO)O[C@@H]4CO)O[C@@H]3CO [Gamma-CD, γ-cyclodextrin] | 41% | 61% | 46% | 69% | 44% | 65% | – | – |
| CCCCCCCCCCCCOS(=O)(=O)[O-].[Na+] [SDS, reference compound] | – | – | – | – | – | – | – | 10% and 6% and 8% |
| O=C1NS(=O)(=O)c2ccccc21.[Na] [Saccharin-Natrium] | 43% | 55% | 50% | 55% | – | – | – | – |
| O=C1O[C@H]([C@@H](O)CO)C([O-])=C1O.[Na+] [Sodium Ascorbate] | 70% | 22% | 66% | 70% | 51% | 57% | – | – |
| NC[C@H]1O[C@H](O[C@H]2[C@H](O)[C@@H](O[C@H]3O[C@H](CO)[C@@H](O)[C@H](N)[C@H]3O)[C@H](N)C[C@@H]2N)[C@H](N)C[C@@H]1O [Tobramycin (T100), Tobramycin, reference compound] | 46% | 94% | 79% | 123% | – | – | No damaging effect | – |
| Captisol | 58% | 114% | 56% | 98% | 66% | 83% | – | – |
| Vitamin E TPGS | 50% | 47% | 49% | 48% | 51% | 47% | – | – |
